For assay [1], the target named is T1, androgen receptor (AR) (Homo sapiens, UniProt P10275).
T1 sequence (P10275 1-920): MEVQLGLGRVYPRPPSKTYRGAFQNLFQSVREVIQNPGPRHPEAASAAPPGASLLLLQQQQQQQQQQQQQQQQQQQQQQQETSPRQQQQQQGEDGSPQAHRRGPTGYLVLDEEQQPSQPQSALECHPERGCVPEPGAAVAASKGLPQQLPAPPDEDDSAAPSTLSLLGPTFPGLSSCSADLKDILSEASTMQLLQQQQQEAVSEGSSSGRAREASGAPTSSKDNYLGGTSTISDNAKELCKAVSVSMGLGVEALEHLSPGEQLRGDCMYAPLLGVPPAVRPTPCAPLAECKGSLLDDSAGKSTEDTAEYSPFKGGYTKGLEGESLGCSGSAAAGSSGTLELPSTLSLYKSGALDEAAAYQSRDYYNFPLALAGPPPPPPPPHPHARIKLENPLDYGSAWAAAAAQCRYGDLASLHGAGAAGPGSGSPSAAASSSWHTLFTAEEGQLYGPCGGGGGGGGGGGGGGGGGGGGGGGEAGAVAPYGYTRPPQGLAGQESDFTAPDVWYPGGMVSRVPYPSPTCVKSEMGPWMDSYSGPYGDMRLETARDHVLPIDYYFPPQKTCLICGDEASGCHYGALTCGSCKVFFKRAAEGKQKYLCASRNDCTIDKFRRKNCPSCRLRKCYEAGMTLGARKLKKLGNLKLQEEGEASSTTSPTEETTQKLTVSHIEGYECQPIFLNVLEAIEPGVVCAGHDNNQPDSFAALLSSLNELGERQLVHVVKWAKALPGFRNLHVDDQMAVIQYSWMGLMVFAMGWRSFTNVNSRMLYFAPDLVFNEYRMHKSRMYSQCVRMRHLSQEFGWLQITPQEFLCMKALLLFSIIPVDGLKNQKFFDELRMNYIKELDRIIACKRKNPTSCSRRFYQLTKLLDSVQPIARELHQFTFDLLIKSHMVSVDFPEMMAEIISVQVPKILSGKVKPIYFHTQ
Put plainly: Degradation of androgen receptor (AR) protein in VCaP cells by Western blot. Type of assay: cell-based. The settings on record: percentage of degraded AR at 100 nM, VCaP cells, 16 h. The protocol:
Determination of the Degradation Activity of the Compound on Androgen Receptor (AR) Protein by Western Blot
1) VCaP cells were subcultured in cell culture media, and then the cells in good growth condition were seeded in a 12-well plate at 1 ml/well (5×10^5 cells/well), and cultured overnight in a 37° C., 5% CO2 cell incubator. 2) The test compound was prepared into a 10 mM stock solution with dimethyl sulfoxide (DMSO). Prior to use, the solution was diluted 3 times with DMSO. […] of the diluted compound solution was added to the cell culture well (ensuring that the DMSO concentration in the culture system was 0.1%), and two wells were set for each concentration. The plate was gently shaken to mix. In addition, the experiment included negative control wells (containing equal amount of DMSO) and positive control wells. 3) After culturing 16 h. the cells were lysed with RIPA cell lysate, and the protein was extracted. The protein concentration was measured with BCA kit. 5-fold concentrated protein loading buffer was added, and after heated at 100° C. for 5 min. the sample was stored at −20° C. 4) for each well, 30 μg of protein was loaded on polyacrylamide gel for electrophoresis. 5) The protein was transferred from polyacrylamide gel to PVDF membrane, and then 5% skim milk was added to close for 1 h at room temperature. The first antibody (Androgen Receptor (D6F11) XP Rabbit mAb and Anti-β-Actin Rabbit mAb) was added and incubated overnight at 4° C. The membrane was washed with TBST solution three times. 10 min for each time. The secondary antibody (horseradish peroxidase labeled goat […]) was added and incubated at room temperature for 2 h, and then the membrane was washed with TBST solution three times. 10 min for each time.
Finally, ECL chemiluminescence solution was added, and then photos were taken with automatic chemiluminescence instrument to collect pictures for analysis.

Assay [2] deals with T1, androgen receptor (AR). Put plainly: Degradation of androgen receptor (AR) protein in VCaP cells by ELISA. The settings on record: for Dmax: VCaP. Type of assay: cell-based.

The text below walks through data of US20230091225A1, “Bifunctional chimeric heterocyclic compounds for targeted degradation of androgen receptors and use thereof” (HINOVA PHARMACEUTICALS INC., priority 2019, published 2023).

Like-named read-outs stand apart in the source and are kept apart here.

`CC1(C)[C@H](NC(=O)c2ccc(N3CC4CN(C5CCN(c6cc7c(cc6F)C(=O)N(C6CCC(=O)NC6=O)C7=O)CC5)CC4C3)nn2)C(C)(C)[C@H]1Oc1ccc(C#N)c(Cl)c1` (stereo partly drawn) [Compound 72, N-((1r,3r)-3-(3-chloro-4-cyanophenoxy)-2,2,4,4-tetramethylcyclobutyl)-6-(5-(1-(2-(2,6-dioxopiperidin-3-yl)-6-fluoro-1,3-dioxoisoindolin-5-yl)piperidine-4-yl)hexahydropyrrolo[3,4-c]pyrrol-2(1H)-yl)pyridazine-3-formamide]: in assay [1], the inhibition at 0.1 µM lay within 25 to 49%.

For `N#Cc1ccc(O[C@H]2CC[C@H](NC(=O)c3ccc(N4CCC(CN5CCC6(C5)CN(c5cc7c(cc5F)C(=O)N(C5CCC(=O)NC5=O)C7=O)C6)CC4)nn3)CC2)cc1Cl` (stereo partly drawn) [Compound 184, N-((1r,4r)-4-(3-chloro-4-cyanophenoxy)cyclohexyl)-6-(4-((2-(2-(2,6-dioxopiperidin-3-yl)-6-fluoro-1,3-dioxoisoindolin-5-yl)-2,6-diazaspiro[3.4]octan-6-yl)methyl)piperidin-1-yl)pyridazine-3-formamide], the inhibition at 0.1 µM in assay [1] was over 80%.

`N#Cc1ccc(O[C@H]2CC[C@H](NC(=O)c3cnc(N4CCC5(CCN(CC6CCN(c7cc8c(cc7F)C(=O)N(C7CCC(=O)NC7=O)C8=O)CC6)C5)C4)cn3)CC2)cc1Cl` (stereo partly drawn) [Compound 163] gave an inhibition at 0.1 µM in assay [1] of over 80%.

On to `N#Cc1ccc(O[C@H]2CC[C@H](NC(=O)c3ccc(N4C[C@H]5C[C@@H](CN6CCN(c7cc8c(cc7F)C(=O)N(C7CCC(=O)NC7=O)C8=O)CC6)C[C@H]5C4)nn3)CC2)cc1Cl` (stereo partly drawn) [Compound 224, N-((1r,4r)-4-(3-chloro-4-cyanophenoxy)cyclohexyl)-6-((3aR,5R,6aS)-5-((4-(2-(2,6-dioxopiperidin-3-yl)-6-fluoro-1,3-dioxoisoindolin-5-yl)piperazin-1-yl)methyl)hexahydrocyclopenta[c]pyrrole-2(1H)-yl)pyridazine-3-formamide], for which the inhibition at 0.1 µM in assay [1] is 50 to 79%.

In assay [1], `N#Cc1ccc(O[C@H]2CC[C@H](NC(=O)c3ccc(N4CCC(N5CCC6(CCN(c7cc8c(cc7F)C(=O)N(C7CCC(=O)NC7=O)C8=O)C6)C5)CC4)nn3)CC2)cc1Cl` (stereo partly drawn) [Compound 164, N-((1r,4r)-4-(3-chloro-4-cyanophenoxy)cyclohexyl)-6-(4-(7-(2-(2,6-dioxopiperidin-3-yl)-6-fluoro-1,3-dioxoisoindol-5-yl)-2,7-diazaspiro[4.4]nonan-2-yl)piperidin-1-yl)pyridazine-3-formamide] showed an inhibition at 0.1 µM of over 80%.

Compound `N#Cc1ccc(O[C@H]2CC[C@H](NC(=O)c3ccc(N4CCN(C[C@@H]5[C@H]6CN(c7ccc8c(c7)C(=O)N(C7CCC(=O)NC7=O)C8=O)C[C@@H]56)CC4)nn3)CC2)cc1Cl` (stereo partly drawn) [Compound 102] returned an inhibition at 0.1 µM in assay [1] of 50 to 79%.

Turning to `N#Cc1ccc(O[C@H]2CC[C@H](NC(=O)c3cnc(N4CCC(CN5CCC(Nc6cc7c(cc6F)C(=O)N(C6CCC(=O)NC6=O)C7=O)CC5)CC4)cn3)CC2)cc1Cl` (stereo partly drawn) [Compound 145], in assay [1], the inhibition at 0.1 µM is over 80%.

`N#Cc1ccc(O[C@H]2CC[C@H](NC(=O)c3ccc(N4CCC5(CN(CC6CCN(c7cc8c(cc7F)C(=O)N(C7CCC(=O)NC7=O)C8=O)CC6)C5)C4)nn3)CC2)cc1Cl` (stereo partly drawn) [Compound 183, N-((1r,4r)-4-(3-chloro-4-cyanophenoxy)cyclohexyl)-6-(2-((1-(2-(2,6-dioxopiperidin-3-yl)-6-fluoro-1,3-dioxoisoindolin-5-yl)piperidine-4-yl)methyl)-2,6-diazaspiro[3.4]octan-6-yl)pyridazine-3-formamide] came in with an inhibition at 0.1 µM in assay [1] of over 80%.

For `CC1(C)[C@H](Oc2ccc(C#N)c(Cl)c2)C(C)(C)[C@H]1N1Cc2nc(C#C[C@H]3CC[C@H](N4CCN(c5cc6c(cc5F)C(=O)N(C5CCC(=O)NC5=O)C6=O)CC4)CC3)ccc2C1=O` (stereo partly drawn) [Compound 326], the inhibition at 0.1 µM in assay [1] was in the range of 50 to 79%.

Compound `N#Cc1ccc(O[C@H]2CC[C@H](NC(=O)c3cnc(N4CCN([C@@H]5C[C@@H]6CN(c7ccc8c(c7)C(=O)N(C7CCC(=O)NC7=O)C8=O)C[C@@H]6C5)CC4)nc3)CC2)cc1Cl` (stereo partly drawn) [Compound 300, N-((1r,4r)-4-(3-chloro-4-cyanophenoxy)cyclohexyl)-2-(4-((3aR,5R,6aS)-2-(2-(2,6-dioxopiperidin-3-yl)-1,3-dioxoisoindolin-5-yl)octahydrocyclopenta[c]pyrrol-5-yl)piperazin-1-yl)pyrimidine-5-carboxamide] displayed an inhibition at 0.1 µM in assay [1] of under 25%.

The compound `N#Cc1ccc(O[C@H]2CC[C@H](NC(=O)c3ccc(N4CCC5(CCN(CC6CCN(c7cc8c(cc7F)C(=O)N(C7CCC(=O)NC7=O)C8=O)CC6)C5)C4)nn3)CC2)cc1Cl` (stereo partly drawn) [Compound 162, N-((1r,4r)-4-(3-chloro-4-cyanophenoxy)cyclohexyl)-6-(7-((1-(2-(2,6-dioxopiperidin-3-yl)-6-fluoro-1,3-dioxoisoindolin-5-yl)piperidine-4-yl)methyl)-2,7-diazaspiro[4.4]nonan-2-yl)pyridazine-3-formamide] gave an inhibition at 0.1 µM in assay [1] of over 80%.

Turning to `N#Cc1ccc(O[C@H]2CC[C@H](NC(=O)c3ccc(N4CCC(CN5CCC6(CCN(c7cc8c(cc7F)C(=O)N(C7CCC(=O)NC7=O)C8=O)C6)C5)CC4)nn3)CC2)cc1Cl` (stereo partly drawn) [Compound 142, N-((1r,4r)-4-(3-chloro-4-cyanophenoxy)cyclohexyl)-6-(4-((7-(2-(2,6-dioxopiperidin-3-yl)-6-fluoro-1,3-dioxoisoindol-5-yl)-2,7-diazaspiro[4.4]nonan-2-yl)methyl)piperidin-1-yl)pyridazine-3-formamide], the inhibition at 0.1 µM in assay [1] was over 80%.

As for `N#Cc1ccc(OC2CCC(NC(=O)c3ccc(N4CCC(CN5CCC6(CC5)CN(c5ccc7c(c5)C(=O)N(C5CCC(=O)NC5=O)C7=O)C6)CC4)nn3)CC2)cc1Cl` (stereo not drawn) [Compound 230, N-((1r,4r)-4-(3-chloro-4-cyanophenoxy)cyclohexyl)-6-(4-((2-(2-(2,6-dioxopiperidin-3-yl)-1,3-dioxoisoindolin-5-yl)-2,7-diazaspiro[3.5]nonan-7-yl)methyl)piperidin-1-yl)pyridazine-3-carboxamide], in assay [1], the “% degradation” value is on record as “A (>80%)”.

With `N#Cc1ccc(OC2CCC(NC(=O)c3ncc(N4C[C@H]5CC(N6CCN(c7cc8c(cc7F)C(=O)N(C7CCC(=O)NC7=O)C8=O)CC6)C[C@H]5C4)cn3)CC2)cc1Cl` (stereo partly drawn) [Compound 294, N-((1r,4r)-4-(3-chloro-4-cyanophenoxy)cyclohexyl)-5-((3aR,5R,6aS)-5-(4-(2-(2,6-dioxopiperidin-3-yl)-6-fluoro-1,3-dioxoisoindolin-5-yl)piperazin-1-yl)hexahydrocyclopenta[c]pyrrole-2(1H)-yl)pyrimidine-2-carboxamide], the “% degradation” value in assay [1] was “C (49%-25%)”.

Take `N#Cc1ccc(O[C@H]2CC[C@H](NC(=O)c3cnc(N4CC5(CCN(CC6CCN(c7ccc8c(c7)C(=O)N(C7CCC(=O)NC7=O)C8=O)CC6)CC5)C4)cn3)CC2)cc1Cl` (stereo partly drawn) [Compound 283, N-((1r,4r)-4-(3-chloro-4-cyanophenoxy)cyclohexyl)-6-(7-((1-(2-(2,6-dioxopiperidin-3-yl)-1,3-dioxoisoindolin-5-yl)piperidine-4-yl)methyl)-2,7-diazaspiro[3.5]nonan-2-yl)pyrazine-3-formamide]: in assay [2] (AR degradation, VCaP cells, 16 h, ELISA, Table 3-1, read-out: DC50), the 50% degradation concentration (DC50) was under 10 nM. Besides, in assay [2] (AR degradation, VCaP cells, 16 h, ELISA, Table 3-1, read-out: Dmax (%)), the Dmax was over 80%.

On to `N#Cc1ccc(O[C@H]2CC[C@H](NC(=O)c3ncc(N4CCC(CN5CCC6(CC5)CN(c5ccc7c(c5)C(=O)N(C5CCC(=O)NC5=O)C7=O)C6)CC4)cn3)CC2)cc1Cl` (stereo partly drawn) [Compound 149], for which, in assay [2], the DC50 is over 300 nM and the Dmax was under 40%.
